Experimental data: US20230407243A1, “GENETIC PLATFORM TO INVESTIGATE THE FUNCTIONS OF BACTERIAL DRUG EFFLUX PUMPS” (priority 2022, published 2023)
Read-outs that look alike come from different tables or passages of the source.

Key:
Type in all cases: cell-based, Escherichia coli
[1] = test system: EKO-35-Pore; assay: Checkerboard synergy (FICI), porinated strain
Description: (§1) Synergy measurement using checkerboard analysis was performed in 96-well microtiter plates using the microdilution broth method, according to CLSI guidelines (Patel J. B., 2015). The cell inocula were prepared using the colony resuspension method. The minimum inhibitory concentrations (MICs) were defined as the lowest concentration that provided no growth, as determined by measurement of the OD600nm using a Synergy H1 microplate reader (BioTek). Susceptibility testing was performed in MHB II with a final volume of 100 μL. PAI3N (Bachem Americas) was solubilized in MHB II. […] Solvent controls were included in each plate.
(§2) The Fractional Inhibitory Concentration Index (FICI) was used to assess the synergy of PAI3N in combination with different antibiotics. The FICI represents the ΣFIC of each drug. The FICI for each drug was calculated using the following formula: FICI=FICA+FICB=(CA/MICA)+(CB/MICB). Where MICA and MICB are the MICs of drugs A (PAI3N/NMP) and B (antibiotic) alone, and CA and CB are the MICs of the drugs in combination. The effects of PAβN or NMP in combination with antibiotics were classified as: synergistic (FICI<0.5), additive (FICI>0.5-1.0), indifferent (FICI>1.0-2.0), and antagonistic (FICI>2.0). Fold increases in resistance provided by efflux pumps were calculated by dividing the MIC values of strains expressing efflux pumps by the MIC value of EKO-35.

[2] = test system: EKO-35-Pore acrBD408A (functionally inactive AcrB variant); assay: Checkerboard synergy (FICI), porinated strain
Description: as §1, §2

[3] = test system: EKO-35 porinated strain expressing acrB; assay: Checkerboard synergy (FICI), porinated strain; conditions: for MICb Alone: antibiotic alone
Description: as §1, §2

[4] = test system: wild-type K-12-Pore; assay: Checkerboard synergy (FICI), porinated strain
Description: as §1, §2

[5] = test system: ΔtolC-Pore
How it was run: (§3)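 Read-out was OD600, the MIC being the lowest concentration without growth in a CLSI checkerboard run in MHB II. Each drug's MIC in combination was divided by its MIC alone and the two ratios summed as FICI. Cut-offs: <0.5 synergy, >0.5–1.0 additive, >1.0–2.0 indifferent, >2.0 antagonism.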

[6] = test system: wild-type E. coli K-12
How it was run: as §3

[7] = test system: EKO-35
How it was run: as §3

[8] = test system: EKO-35 strains producing different efflux pumps (EKO-35 araC::X); assay: Checkerboard synergy (FICI) of PAβN or NMP with antibiotics
Description: as §1, §2

[9] = strain EKO-35 Pore, NMP + antibiotic
[10] = strain EKO-35 Pore, antibiotic alone
[11] = EKO-35 acrBD408A Pore, NMP + antibiotic
[12] = strain EKO-35 acrBD408A Pore, NMP + antibiotic
[13] = strain EKO-35 acrBD408A Pore, antibiotic in combination with NMP
[14] = EKO-35 acrB Pore, NMP + antibiotic
[15] = strain EKO-35 acrB Pore, NMP + antibiotic
[16] = strain EKO-35 acrB Pore, antibiotic in combination with NMP
[17] = strain K-12 Pore, NMP + antibiotic
[18] = strain K-12 Pore, antibiotic alone
[19] = strain K-12 Pore, antibiotic in combination with NMP
[20] = strain ΔtolC Pore, NMP + antibiotic
[21] = strain ΔtolC Pore, antibiotic alone
[22] = strain ΔtolC Pore, antibiotic in combination with NMP
[23] = strain EKO-35, NMP + antibiotic
[24] = strain EKO-35, antibiotic alone
[25] = strain EKO-35, antibiotic in combination with NMP
[26] = strain EKO-35 acrB, NMP + antibiotic
[27] = strain EKO-35 acrB, antibiotic in combination with NMP
[28] = strain EKO-35 acrEF, NMP + antibiotic
[29] = strain EKO-35 acrEF, antibiotic alone
[30] = strain EKO-35 acrEF, antibiotic in combination with NMP
[31] = EKO-35 acrEF, PAβN + antibiotic
[32] = strain EKO-35 acrD, NMP + antibiotic

CC[n+]1c(-c2ccccc2)c2cc(N)ccc2c2ccc(N)cc21 [ethidium bromide]
FICI ([1]; EKO-35 Pore, NMP + antibiotic): 0.508 | Effect [1, 9]: Additive (additive (FICI >0.5-1.0)) | FICI [1, 9]: 0.508 | MICb Alone [1, 10]: 0.488 µg/mL | FICI [2, 11]: 1.000 | Effect [2, 12]: — (indifferent (FICI >1.0)) | FICI [2, 12]: 1.000 | MICb Combined [2, 13]: 0.122 µg/mL | FICI [3, 14]: 0.191 | Effect [3, 15]: Synergistic (Synergy (FICI ≤0.5)) | FICI [3, 15]: 0.191 | MICb Alone ([3]; strain EKO-35 acrB Pore): 15.6 µg/mL | MICb Combined [3, 16]: 2 µg/mL | Effect [4, 17]: Synergistic (Synergy (FICI ≤0.5)) | MICb Alone [4, 18]: 250 µg/mL | MICb Combined [4, 19]: 31.3 µg/mL | Effect [5, 20]: Additive (additive (FICI >0.5-1.0)) | FICI [5, 20]: 0.500 | MICb Alone [5, 21]: 1.95 µg/mL | MICb Combined [5, 22]: 0.488 µg/mL | FICI ([5]; ΔtolC Pore, NMP + antibiotic): 0.500 | FICI ([6]; K-12, NMP + antibiotic): 0.375 | Effect ([6]; strain K-12, NMP + antibiotic): Synergistic (Synergy (FICI ≤0.5)) | FICI ([6]; strain K-12, NMP + antibiotic): 0.375 | MICb Alone ([6]; strain K-12, antibiotic alone): 500 µg/mL | MICb Combined ([6]; strain K-12, antibiotic in combination with NMP): 125 µg/mL | FICI ([7]; EKO-35, NMP + antibiotic): 2.000 | Effect [7, 23]: — (indifferent (FICI >1.0)) | FICI [7, 23]: 2.000 | MICb Alone [7, 24]: 0.244 µg/mL | MICb Combined [7, 25]: 0.244 µg/mL | FICI ([8]; EKO-35 acrB, NMP + antibiotic): 0.253 | FICI ([8]; EKO-35 acrEF, NMP + antibiotic): 0.500 | Effect [8, 26]: Synergistic (Synergy (FICI ≤0.5)) | FICI [8, 26]: 0.253 | MICb Alone ([8]; strain EKO-35 acrB, antibiotic alone): 15.6 µg/mL | MICb Combined [8, 27]: 2 µg/mL | Effect [8, 28]: Synergistic (Synergy (FICI ≤0.5)) | FICI [8, 28]: 0.500 | MICb Alone [8, 29]: 2 µg/mL | MICb Combined [8, 30]: 0.5 µg/mL

Cc1onc(-c2ccccc2)c1C(=O)N[C@@H]1C(=O)N2[C@@H]1SC(C)(C)[C@@H]2C(=O)O [oxacillin]
Effect ([1]; EKO-35 Pore, NMP + antibiotic): Additive | FICI ([1]; EKO-35 Pore, NMP + antibiotic): 0.750 | FICI ([1]; EKO-35 Pore, PAβN + antibiotic): 1.020 | MICb Alone ([1]; EKO-35 Pore, antibiotic alone (PAβN checkerboard)): 0.25 µg/mL | MICb Combined ([1]; EKO-35 Pore, antibiotic in combination with PAβN): 0.13 µg/mL | interaction of PAβN in combination with the labelled antibiotic (FICI) ([1]; porinated efflux-deficient strains): no longer synergistic | Effect [1, 9]: Additive (additive (FICI >0.5-1.0)) | FICI [1, 9]: 0.750 | MICb Alone [1, 10]: 0.5 µg/mL | MICb Combined ([1]; strain EKO-35 Pore, antibiotic in combination with NMP): 0.25 µg/mL | FICI [2, 11]: 2.000 | FICI ([2]; EKO-35 acrBD408A Pore, PAβN + antibiotic): 1.020 | MICb Alone ([2]; EKO-35 acrBD408A Pore, antibiotic alone (PAβN checkerboard)): 0.25 µg/mL | MICb Combined ([2]; EKO-35 acrBD408A Pore, antibiotic in combination with PAβN): 0.13 µg/mL | Effect [2, 12]: — (indifferent (FICI >1.0)) | FICI [2, 12]: 2.000 | MICb Alone ([2]; strain EKO-35 acrBD408A Pore, antibiotic alone): 0.13 µg/mL | MICb Combined [2, 13]: 0.13 µg/mL | Effect [3, 14]: Synergistic | FICI [3, 14]: 0.500 | Effect ([3]; EKO-35 acrB Pore, PAβN + antibiotic): Synergistic | MICb Combined ([3]; EKO-35 acrB Pore, antibiotic in combination with PAβN): 16 µg/mL | potentiation of the labelled compound by NMP ([3]; porinated strain producing AcrB): enhancing the activity | Effect [3, 15]: Synergistic (Synergy (FICI ≤0.5)) | FICI [3, 15]: 0.500 | MICb Alone ([3]; strain EKO-35 acrB Pore): 64 µg/mL | MICb Combined [3, 16]: 16 µg/mL | Effect ([4]; K-12 Pore, NMP + antibiotic): Synergistic | FICI ([4]; K-12 Pore, NMP + antibiotic): 0.266 | Effect ([4]; K-12 Pore, PAβN + antibiotic): Additive | FICI ([4]; K-12 Pore, PAβN + antibiotic): 0.750 | MICb Alone ([4]; K-12 Pore, antibiotic alone (PAβN checkerboard)): 32 µg/mL | MICb Combined ([4]; K-12 Pore, antibiotic in combination with PAβN): 16 µg/mL | Effect [4, 17]: Synergistic (Synergy (FICI ≤0.5)) | FICI [4, 17]: 0.266 | MICb Alone [4, 18]: 64 µg/mL | MICb Combined [4, 19]: 16 µg/mL | Effect [5, 20]: Additive (additive (FICI >0.5-1.0)) | FICI [5, 20]: 0.531 | MICb Alone [5, 21]: 1 µg/mL | MICb Combined [5, 22]: 0.5 µg/mL | Effect ([5]; ΔtolC Pore, NMP + antibiotic): Additive | FICI ([5]; ΔtolC Pore, NMP + antibiotic): 0.531 | Effect ([5]; ΔtolC Pore, PAβN + antibiotic): Additive | FICI ([5]; ΔtolC Pore, PAβN + antibiotic): 0.740 | MICb Alone ([5]; ΔtolC Pore, antibiotic alone (PAβN checkerboard)): 0.25 µg/mL | MICb Combined ([5]; ΔtolC Pore, antibiotic in combination with PAβN): 0.06 µg/mL | Effect ([6]; K-12, NMP + antibiotic): Synergistic | FICI ([6]; K-12, NMP + antibiotic): 0.375 | Effect ([6]; K-12, PAβN + antibiotic): Synergistic | FICI ([6]; K-12, PAβN + antibiotic): 0.188 | MICb Alone ([6]; K-12, antibiotic alone (PAβN checkerboard)): 512 µg/mL | MICb Combined ([6]; K-12, antibiotic in combination with PAβN): 32 µg/mL | Effect ([6]; strain K-12, NMP + antibiotic): Synergistic (Synergy (FICI ≤0.5)) | FICI ([6]; strain K-12, NMP + antibiotic): 0.375 | MICb Alone ([6]; strain K-12, antibiotic alone): 512 µg/mL | Effect ([7]; EKO-35, NMP + antibiotic): Additive | FICI ([7]; EKO-35, NMP + antibiotic): 0.510 | Effect ([7]; EKO-35, PAβN + antibiotic): Synergistic | FICI ([7]; EKO-35, PAβN + antibiotic): 0.323 | MICb Alone ([7]; EKO-35, antibiotic alone (PAβN checkerboard)): 0.5 µg/mL | MICb Combined ([7]; EKO-35, antibiotic in combination with PAβN): 0.13 µg/mL | interaction of PAβN in combination with the labelled antibiotic (FICI) ([7]; efflux-deficient strains EKO-35, EKO-35 acrBD408A, ΔtolC): synergized | Effect [7, 23]: Additive (additive (FICI >0.5-1.0)) | FICI [7, 23]: 0.510 | MICb Alone [7, 24]: 0.5 µg/mL | MICb Combined [7, 25]: 0.13 µg/mL | Effect ([8]; EKO-35 acrB, NMP + antibiotic): Additive | Effect ([8]; EKO-35 acrB, PAβN + antibiotic): Synergistic | FICI ([8]; EKO-35 acrB, PAβN + antibiotic): 0.125 | MICb Alone ([8]; EKO-35 acrB, antibiotic alone (PAβN checkerboard)): 1024 µg/mL | MICb Combined ([8]; EKO-35 acrB, antibiotic in combination with PAβN): 64 µg/mL | Effect ([8]; EKO-35 acrD, NMP + antibiotic): Additive | FICI ([8]; EKO-35 acrD, NMP + antibiotic): 0.750 | Effect ([8]; EKO-35 acrD, PAβN + antibiotic): Synergistic | FICI ([8]; EKO-35 acrD, PAβN + antibiotic): 0.156 | MICb Combined ([8]; EKO-35 acrD, antibiotic in combination with PAβN): 16 µg/mL | Effect ([8]; EKO-35 acrEF, NMP + antibiotic): Synergistic | Effect [8, 31]: Synergistic | FICI [8, 31]: 0.133 | MICb Alone ([8]; EKO-35 acrEF, antibiotic alone (PAβN checkerboard)): 256 µg/mL | MICb Combined ([8]; EKO-35 acrEF, antibiotic in combination with PAβN): 2 µg/mL | Effect [8, 26]: Additive (additive (FICI >0.5-1.0)) | MICb Combined [8, 27]: 16 µg/mL | Effect [8, 32]: Additive (additive (FICI >0.5-1.0)) | FICI [8, 32]: 0.750 | MICb Combined ([8]; strain EKO-35 acrD, antibiotic in combination with NMP): 32 µg/mL | Effect [8, 28]: Synergistic (Synergy (FICI ≤0.5)) | MICb Alone [8, 29]: 256 µg/mL | MICb Combined [8, 30]: 64 µg/mL
